Consider 55 compounds from PubChem BioAssay AID743068 (The Scripps Research Institute Molecular Screening Center, 2013).

A word on the IC50: it is the concentration needed to halve the response being measured. A low value points to greater potency in that assay.

Molecules are shown by their SMILES.

The subject of the test is T. brucei. Put plainly: growth inhibition of T. brucei parasites, late-stage follow-up, T. brucei MetRS inhibitor project, absorbance, round 1 (AID 743068). Particulars: T. brucei Lister 427 bloodstream forms, AlamarBlue fluorescence, 48 h.
For `O=C(Cn1cc(C(=O)C(=O)N2CCOCC2)c2ccccc21)NCc1ccccc1`, the IC50 is > 10 µM.
As for `Cc1cccc(C(=O)NCCc2nc3ccccc3n2CCOc2ccccc2)c1`, the figure is > 10 µM.
For `COc1ccccc1NC(=O)Cn1cc(C(=O)C(=O)N2CCOCC2)c2ccccc21` the value was > 10 µM; for `O=C(Cn1cc(C(=O)C(=O)N2CCCC2)c2ccccc21)Nc1ccccc1`, > 10 µM.
As for `Cc1cc2cc(C(=O)N3CCCC(c4nc5ccccc5[nH]4)C3)ccc2o1` (stereo not given), the figure is > 10 µM; as for `Cc1ccc2[nH]c3nc(SCC(=O)Nc4ccc(C(F)(F)F)cc4)nnc3c2c1`, > 10 µM; as for `CC1Cc2ccccc2N1C(=O)Cn1cc(C(=O)C(=O)N2CCOCC2)c2ccccc21` (stereo not given), > 10 µM.
Turning to `O=C(Cn1cc(C(=O)c2ccco2)c2ccccc21)Nc1cccc(C(F)(F)F)c1`, the IC50 was 8.18 µM.
As for `CCN(C(=O)Cn1cc(C(=O)C(=O)N2CCOCC2)c2ccccc21)c1ccccc1`, the figure is > 10 µM; as for `CCO[C@H]1OC(C(=O)NCc2nc3ccccc3[nH]2)=C[C@@H](c2ccc(Br)cc2)[C@@H]1CCCO`, > 10 µM.
As for `COc1ccc(NC(=O)CSc2nnc3c4cc(C)ccc4n(C)c3n2)cc1`, the figure is > 10 µM; as for `O=C(Cn1cc(C(=O)COc2ccccc2)c2ccccc21)Nc1cccc(C(F)(F)F)c1`, > 10 µM.
For `CCN(CCc1nc2ccc(C)cc2[nH]1)C(=O)c1ccc2ncccc2c1`, the IC50 was > 10 µM.
For `CCN(CC)C(=O)C(=O)c1cn(CC(=O)N(CC)c2ccccc2)c2ccccc12` the value was > 10 µM; for `CCN(CC)C(=O)C(=O)c1cn(CC(=O)Nc2ccccc2OC)c2ccccc12`, > 10 µM; for `O=C(Cn1cc(C(=O)C(=O)N2CCOCC2)c2ccccc21)NCC1CCCO1` (stereo not given), > 10 µM.
As for `O=C(NCCc1nc2ccccc2[nH]1)c1ccc(Cl)cc1`, the figure is > 10 µM.
As for `O=C(NCc1nc2ccccc2[nH]1)C1=C[C@@H](C2CC2)C[C@@H](OCc2ccc(CO)cc2)O1`, the figure is > 10 µM; as for `CCC(=O)c1cn(CC(=O)Nc2cccc(C(F)(F)F)c2)c2ccccc12`, > 10 µM.
With `O=C(NCCc1nc2ccccc2[nH]1)c1ccc(Cl)cc1Cl`, the IC50 is > 10 µM.
Take `COc1ccccc1NC(=O)CSc1nnc2c(n1)[nH]c1ccc(C)cc12`: the concentration for half-maximal inhibition (IC50) is > 10 µM.
For `COc1cccc(NC(=O)C2CC(=O)n3c(nc4ccccc43)N2)c1` (stereo not given) the value was > 10 µM.
As for `O=C(Cn1cc(C(=O)c2ccccc2)c2ccccc21)Nc1cccc(C(F)(F)F)c1`, the figure is 4.2 µM; as for `COCCc1nc2ccc(C(=O)NCCc3nc4ccc(OC)cc4[nH]3)cc2o1`, > 10 µM.
As for `COc1ccc(CCN(C(=O)c2cccc(F)c2)C2CC(=O)N(c3ccc(Br)cc3)C2=O)cc1` (stereo not given), the figure is > 10 µM; as for `CC(=O)N(CCc1ccccc1)C1CC(=O)N(c2ccc(Cl)cc2)C1=O` (stereo not given), > 10 µM.
For the compound `O=C(NCCc1nc2ccccc2[nH]1)c1c(F)cccc1F`, the IC50 is > 10 µM.
Turning to `CC(C)c1nc2ccc(C(=O)N(C)CCc3nc4ccc(F)cc4[nH]3)cc2o1`, the IC50 was > 10 µM.
For `CCN(CC)C(=O)C(=O)c1cn(CC(=O)N2CCCc3ccccc32)c2ccccc12`, the IC50 was > 10 µM.
As for `COc1ccc(CCN(C(=S)Nc2ccccc2)C2CC(=O)N(c3ccc(Cl)cc3)C2=O)cc1` (stereo not given), the figure is 2.1 µM.
For `Cn1c(CCNC(=O)c2ccc(Cl)cc2)nc2ccccc21` the value was > 10 µM.
Regarding `O=C(NCCc1nc2ccccc2[nH]1)c1ccc(Cl)c(Cl)c1`, the 50% inhibitory concentration (IC50) is > 10 µM.
For `CCN(CC)C(=O)C(=O)c1cn(CC(=O)Nc2cccc(C(F)(F)F)c2)c2ccccc12` the value was 2.55 µM.
For `Cc1cccc2[nH]c(CCN(C)C(=O)c3cccc(C4CCNC4)c3)nc12` (stereo not given) the value was > 10 µM.
The compound `O=C(Cn1cc(C(=O)C2CC2)c2ccccc21)Nc1cccc(C(F)(F)F)c1` returned an IC50 of 2.62 µM. This counts as single-digit micromolar.
On to `CC(=O)c1cn(CC(=O)Nc2cccc(C(F)(F)F)c2)c2ccccc12`, for which the IC50 was > 10 µM.
Turning to `Cc1cccc(NC(=O)C2CC(=O)n3c(nc4ccccc43)N2)c1` (stereo not given), the IC50 was > 10 µM.
Regarding `O=C(NCc1nc2ccccc2[nH]1)C1=C[C@H](c2ccc3c(c2)OCO3)C[C@H](OCCCCO)O1`, the IC50 was > 10 µM.
For `CCc1ccc2[nH]c3nc(SCC(=O)NCc4cccc(OC)c4)nnc3c2c1` the value was > 10 µM.
For `O=C1CC(NCCc2ccccc2)C(=O)N1c1ccc(Br)cc1` (stereo not given) the value was > 10 µM; for `CC(=O)N(CCc1ccccc1)C1CC(=O)N(c2ccc(Br)cc2)C1=O` (stereo not given), > 10 µM.
For `Cc1ccc(C(=O)NCCc2nc3ccccc3[nH]2)cc1[N+](=O)[O-]` the value was > 10 µM.
For the compound `O=C(C(=O)N1CCOCC1)c1cn(CC(=O)N2CCCc3ccccc32)c2ccccc12`, the IC50 was > 10 µM.
For `CCCCn1c(CCNC(=O)c2ccc(F)cc2)nc2ccccc21` the value was > 10 µM.
As for `Cc1ccc(CNC(=O)CSc2nnc3c(n2)[nH]c2ccc(C)cc23)cc1`, the figure is > 10 µM; as for `CCN(CC)C(=O)C(=O)c1cn(CC(=O)Nc2cccc(OC)c2)c2ccccc12`, > 10 µM; as for `CC(C)(C)[C@H]1C=C(C(=O)NCc2nc3ccccc3[nH]2)O[C@@H](OCc2ccc(CO)cc2)C1`, > 10 µM.
For `O=C(CSC1CC(=O)N(c2cccc(Cl)c2)C1=O)Nc1ccc(Br)cc1` (stereo not given) the value was > 10 µM; for `CCc1ccc2c(c1)c1nnc(SCC(=O)Nc3ccc4c(c3)OCO4)nc1n2C`, > 10 µM.
As for `O=C(NCc1nc2ccccc2[nH]1)C1=C[C@H](c2ccccc2)C[C@H](OCc2ccc(CO)cc2)O1`, the IC50 is > 10 µM.
For `Cc1cccc2[nH]c(C3CCCN(C(=O)c4cccc5cccnc45)C3)nc12` (stereo not given), the IC50 was > 10 µM.
As for `Cc1ccc(C(=O)NCCc2nc3ccccc3[nH]2)cc1C`, the figure is > 10 µM; as for `O=C(CSc1nnc2c(n1)[nH]c1ccc(Br)cc12)NCc1ccccc1`, > 10 µM.
Regarding `COc1ccc(NC(=O)C2CC(=O)n3c(nc4ccccc43)N2)cc1` (stereo not given), the IC50 is > 10 µM.
For `CNC(=S)N(CCc1ccccc1)C1CC(=O)N(c2ccc(Br)cc2)C1=O` (stereo not given) the value was 3.44 µM.
